Reference: US20130252935A1, “Monobactams” (PFIZER INC., priority 2010, published 2013)
In brackets after ≈: the same amount, converted by molar mass.

Key:
Format in all cases: cell-based
[1] = tested on: Klebsiella pneumoniae 1000-02; assay: minimum inhibitory concentration (MIC) testing according to CLSI guidelines, Klebsiella pneumoniae; conditions: ciprofloxacin-resistant, ESBL-expressing clinical isolate 1000-02, overnight incubation, lower of duplicate values; for MIC: Klebsiella pneumoniae, read-out: AB-MBT: Klebsiella pneumoniae 1000-02: MIC (MstRcnt)
How it was run: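 MIC by CLSI broth dilution with 2-fold concentration steps and overnight incubation; lowest concentration visibly inhibiting growth versus drug-free control. Ciprofloxacin-resistant, ESBL-expressing clinical isolate 1000-02. Run in duplicate, lower value reported when within 2-fold, with QC organisms and reference compounds per run.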

[2] = tested on: Acinetobacter baumannii/haemolyticus AB-3167; assay: minimum inhibitory concentration (MIC) testing according to CLSI guidelines, Acinetobacter; conditions: multidrug-resistant clinical isolate AB-3167, overnight incubation, lower of duplicate values; for MIC: Acinetobacter baumannii, read-out: AB-MBT: Acinetobacter baumanii AB-3167: MIC (MstRcnt)
How it was run: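 Broth dilution MIC per CLSI M7-A8/M100-S20 against multidrug-resistant clinical isolate AB-3167, using 2-fold drug dilutions and overnight incubation; MIC is the lowest concentration without visible growth. Duplicates within 2-fold reported as the lower value, with control strains and reference compounds in range.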

[3] = tested on: Pseudomonas aeruginosa UC-12120; assay: minimum inhibitory concentration (MIC) testing according to CLSI guidelines, Pseudomonas aeruginosa; conditions: UC-12120, wild-type, labeled as 1091-05, overnight incubation, lower of duplicate values; for MIC: Pseudomonas aeruginosa, UC12120, read-out: AB-MBT: Pseudomonas aeruginosa 1091-05: MIC (MstRcn)
How it was run: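 Broth dilution MIC per CLSI guidelines against wild-type P. aeruginosa UC-12120 (1091-05), using 2-fold drug dilutions and overnight incubation with visual reading of lowest growth-inhibiting concentration. Tested in duplicate; lower value reported when within 2-fold, with control organisms and reference compounds for quality control.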

Structure (SMILES)	MIC [1] [µg/mL]	MIC [3] [µg/mL]	AB-MBT: Klebsiella pneumoniae 1000-02: MIC (MstRcnt) [1] [µg/mL]	AB-MBT: Acinetobacter baumanii AB-3167: MIC (MstRcnt) [2] [µg/mL]	AB-MBT: Pseudomonas aeruginosa 1091-05: MIC (MstRcn) [3] [µg/mL]	MIC [2] [µg/mL]
CC(C)(O/N=C(\C(=O)N[C@@H]1C(=O)N(S(=O)(=O)O)[C@@H]1CNC(=O)OCc1cc(-c2cc(=O)c(O)cn2O)no1)c1csc(N)n1)C(=O)O [Example 38, 2-(5-{[({[(2R,3S)-3-{[(2Z)-2-(2-amino-1,3-thiazol-4-yl)-2-{[(2-carboxypropan-2-yl)oxy]imino}acetyl]amino}-4-oxo-1-sulfoazetidin-2-yl]methyl}carbamoyl)oxy]methyl}isoxazol-3-yl)-1,5-dihydroxy-4-oxo-1,4-dihydropyridinium]	–	–	0.5	0.5	2.0	–
CC(C)(O/N=C(\C(=O)N[C@@H]1C(=O)N(S(=O)(=O)O)[C@@H]1CNC(=O)c1ccc(S(=O)(=O)NCc2cc(=O)c(O)cn2O)cc1)c1csc(N)n1)C(=O)O [Example 39]	–	–	1.00	0.500	0.250	–
CC(C)(O/N=C(\C(=O)N[C@@H]1C(=O)N(S(=O)(=O)O)[C@@H]1CNC(=O)c1cccc(S(=O)(=O)NCc2cc(=O)c(O)cn2O)c1)c1csc(N)n1)C(=O)O [Example 40, 2-({[(1Z)-1-(2-amino-1,3-thiazol-4-yl)-2-{[(2R,3S)-2-({[3-({[(1,5-dihydroxy-4-oxo-1,4-dihydropyridin-2-yl)methyl]amino}sulfonyl)benzoyl]amino}methyl)-4-oxo-1-sulfoazetidin-3-yl]amino}-2-oxoethylidene]amino}oxy)-2-methylpropanoic acid]	0.5 (≈ 0.647 µM)	0.25 (≈ 0.324 µM)	–	–	–	0.25 (≈ 0.324 µM)
CC(C)(O/N=C(\C(=O)N[C@@H]1C(=O)N(S(=O)(=O)O)[C@@H]1CNC(=O)C(=O)NCC1=CC(=O)C(O)=CC1O)c1csc(N)n1)C(=O)O (stereo partly drawn) [Example 41, 2-({[(1Z)-1-(2-amino-1,3-thiazol-4-yl)-2-{[(2R,3S)-2-({[{[(4,6-dihydroxy-3-oxocyclohexa-1,4-dien-1-yl)methyl]amino}(oxo)acetyl]amino}methyl)-4-oxo-1-sulfoazetidin-3-yl]amino}-2-oxoethylidene]amino}oxy)-2-methylpropanoic acid]	0.5 (≈ 0.758 µM)	0.06 (≈ 0.091 µM)	–	–	–	0.25 (≈ 0.379 µM)
CC(C)(O/N=C(\C(=O)N[C@@H]1C(=O)N(S(=O)(=O)O)[C@@H]1CNC(=O)CCC(=O)NCc1cc(=O)c(O)cn1O)c1csc(N)n1)C(=O)O [Example 42, 2-({[(1Z)-1-(2-amino-1,3-thiazol-4-yl)-2-{[(2R,3S)-2-{[(4-{[(1,5-dihydroxy-4-oxo-1,4-dihydropyridin-2-yl)methyl]amino}-4-oxobutanoyl)amino]methyl}-4-oxo-1-sulfoazetidin-3-yl]amino}-2-oxoethylidene]amino}oxy)-2-methylpropanoic acid]	0.5 (≈ 0.726 µM)	0.125 (≈ 0.182 µM)	–	–	–	0.125 (≈ 0.182 µM)
CC(C)(O/N=C(\C(=O)N[C@@H]1C(=O)N(S(=O)(=O)O)[C@@H]1CNC(=O)c1ccc(C(=O)NCc2cc(=O)c(O)cn2O)cc1)c1csc(N)n1)C(=O)O [Example 43, 2-({[(1Z)-1-(2-amino-1,3-thiazol-4-yl)-2-{[(2R,3S)-2-{[(4-{[(1,5-dihydroxy-4-oxo-1,4-dihydropyridin-2-yl)methyl]carbamoyl}benzoyl)amino]methyl}-4-oxo-1-sulfoazetidin-3-yl]amino}-2-oxoethylidene]amino}oxy)-2-methylpropanoic acid]	0.5 (≈ 0.679 µM)	0.125 (≈ 0.17 µM)	–	–	–	0.25 (≈ 0.339 µM)
CC(C)(O/N=C(\C(=O)N[C@@H]1C(=O)N(S(=O)(=O)O)[C@@H]1CNC(=O)c1cccc(C(=O)NCc2cc(=O)c(O)cn2O)c1)c1csc(N)n1)C(=O)O [Example 44, 2-({[(1Z)-1-(2-amino-1,3-thiazol-4-yl)-2-{[(2R,3S)-2-{[(3-{[(1,5-dihydroxy-4-oxo-1,4-dihydropyridin-2-yl)methyl]carbamoyl}benzoyl)amino]methyl}-4-oxo-1-sulfoazetidin-3-yl]amino}-2-oxoethylidene]amino}oxy)-2-methylpropanoic acid]	0.25 (≈ 0.339 µM)	0.25 (≈ 0.339 µM)	–	–	–	0.25 (≈ 0.339 µM)
CC(C)(O/N=C(\C(=O)N[C@@H]1C(=O)N(S(=O)(=O)O)[C@@H]1CNC(=O)Cc1ccc(NC(=O)c2cc(=O)c(O)cn2O)cc1)c1csc(N)n1)C(=O)O [Example 45, 2-({[(1Z)-1-(2-amino-1,3-thiazol-4-yl)-2-{[(2R,3S)-2-({[(4-{[(1,5-dihydroxy-4-oxo-1,4-dihydropyridin-2-yl)carbonyl]amino}phenyl)acetyl]amino}methyl)-4-oxo-1-sulfoazetidin-3-yl]amino}-2-oxoethylidene]amino}oxy)-2-methylpropanoic acid]	4 (≈ 5.43 µM)	0.5 (≈ 0.679 µM)	–	–	–	0.5 (≈ 0.679 µM)

Now from value to compound, other results behind:

MIC [1] [µg/mL]	MIC [3] [µg/mL]	Structure (SMILES)	AB-MBT: Klebsiella pneumoniae 1000-02: MIC (MstRcnt) [1] [µg/mL]	AB-MBT: Acinetobacter baumanii AB-3167: MIC (MstRcnt) [2] [µg/mL]	AB-MBT: Pseudomonas aeruginosa 1091-05: MIC (MstRcn) [3] [µg/mL]	MIC [2] [µg/mL]
2 (≈ 2.82 µM)	0.25 (≈ 0.352 µM)	CC(C)(O/N=C(\C(=O)N[C@@H]1C(=O)N(S(=O)(=O)O)[C@@H]1CNc1ccc(C(=O)NCc2cc(=O)c(O)cn2O)cn1)c1csc(N)n1)C(=O)O [Example 46, 2-({[(1Z)-1-(2-amino-1,3-thiazol-4-yl)-2-{[(2R,3S)-2-{[(5-{[(1,5-dihydroxy-4-oxo-1,4-dihydropyridin-2-yl)methyl]carbamoyl}pyridin-2-yl)amino]methyl}-4-oxo-1-sulfoazetidin-3-yl]amino}-2-oxoethylidene]amino}oxy)-2-methylpropanoic acid]	–	–	–	0.5 (≈ 0.705 µM)
0.25 (≈ 0.357 µM)	0.125 (≈ 0.179 µM)	CC(C)(O/N=C(\C(=O)N[C@@H]1C(=O)N(S(=O)(=O)O)[C@@H]1CNC(=O)NCc1cc(-c2cc(=O)c(O)cn2O)no1)c1csc(N)n1)C(=O)O [Example 47, 2-({[(1Z)-1-(2-amino-1,3-thiazol-4-yl)-2-{[(2R,3S)-2-{[({[3-(1,5-dihydroxy-4-oxo-1,4-dihydropyridin-2-yl)isoxazol-5-yl]methyl}carbamoyl)amino]methyl}-4-oxo-1-sulfoazetidin-3-yl]amino}-2-oxoethylidene]amino}oxy)-2-methylpropanoic acid]	–	–	–	0.25 (≈ 0.357 µM)
1 (≈ 1.29 µM)	1 (≈ 1.29 µM)	CC(C)(O/N=C(\C(=O)N[C@@H]1C(=O)N(S(=O)(=O)O)[C@@H]1CNS(=O)(=O)c1ccc(C(=O)NCc2cc(=O)c(O)cn2O)cc1)c1csc(N)n1)C(=O)O [Example 48, 2-({[(1Z)-1-(2-amino-1,3-thiazol-4-yl)-2-{[(2R,3S)-2-({[(4-{[(1,5-dihydroxy-4-oxo-1,4-dihydropyridin-2-yl)methyl]carbamoyl}phenyl)sulfonyl]amino}methyl)-4-oxo-1-sulfoazetidin-3-yl]amino}-2-oxoethylidene]amino}oxy)-2-methylpropanoic acid]	–	–	–	2 (≈ 2.59 µM)
0.5 (≈ 0.711 µM)	0.5 (≈ 0.711 µM)	C[C@@H](NC(=O)NCc1cc(=O)c(O)cn1O)C(=O)NC[C@@H]1[C@H](NC(=O)/C(=N\OC(C)(C)C(=O)O)c2csc(N)n2)C(=O)N1S(=O)(=O)O [Example 49, 2-({[(1Z)-1-(2-amino-1,3-thiazol-4-yl)-2-{[(2R,3S)-2-{[(N-{[(1,5-dihydroxy-4-oxo-1,4-dihydropyridin-2-yl)methyl]carbamoyl}-D-alanyl)amino]methyl}-4-oxo-1-sulfoazetidin-3-yl]amino}-2-oxoethylidene]amino}oxy)-2-methylpropanoic acid]	–	–	–	0.5 (≈ 0.711 µM)
0.5 (≈ 0.705 µM)	0.125 (≈ 0.176 µM)	CC(C)(O/N=C(\C(=O)N[C@@H]1C(=O)N(S(=O)(=O)O)[C@@H]1CNc1cc(C(=O)NCc2cc(=O)c(O)cn2O)ccn1)c1csc(N)n1)C(=O)O [Example 50, 2-({[(1Z)-1-(2-amino-1,3-thiazol-4-yl)-2-{[(2R,3S)-2-{[(4-{[(1,5-dihydroxy-4-oxo-1,4-dihydropyridin-2-yl)methyl]carbamoyl}pyridin-2-yl)amino]methyl}-4-oxo-1-sulfoazetidin-3-yl]amino}-2-oxoethylidene]amino}oxy)-2-methylpropanoic acid]	–	–	–	0.5 (≈ 0.705 µM)
2 (≈ 2.78 µM)	0.125 (≈ 0.173 µM)	CC(C)(O/N=C(\C(=O)N[C@@H]1C(=O)N(S(=O)(=O)O)[C@@H]1CNC(=O)c1ccc(CNC(=O)c2cc(O)c(O)cn2)cc1)c1csc(N)n1)C(=O)O [Example 51, 2-({[(1Z)-1-(2-amino-1,3-thiazol-4-yl)-2-{[(2R,3S)-2-({[4-({[(4,5-dihydroxypyridin-2-yl)carbonyl]amino}methyl)benzoyl]amino}methyl)-4-oxo-1-sulfoazetidin-3-yl]amino}-2-oxoethylidene]amino}oxy)-2-methylpropanoic acid]	–	–	–	1 (≈ 1.39 µM)
1 (≈ 1.38 µM)	0.5 (≈ 0.692 µM)	CC(C)(O/N=C(\C(=O)N[C@@H]1C(=O)N(S(=O)(=O)O)[C@@H]1CNC(=O)c1ccc(NC(=O)c2cc(=O)c(O)cn2O)cc1)c1csc(N)n1)C(=O)O [Example 52, 2-({[(1Z)-1-(2-amino-1,3-thiazol-4-yl)-2-{[(2R,3S)-2-{[(4-{[(1,5-dihydroxy-4-oxo-1,4-dihydropyridin-2-yl)carbonyl]amino}benzoyl)amino]methyl}-4-oxo-1-sulfoazetidin-3-yl]amino}-2-oxoethylidene]amino}oxy)-2-methylpropanoic acid]	–	–	–	0.5 (≈ 0.692 µM)
